# Reference: patent US9938587B2 (priority 2011, dated 2018)
# Tests used:
# [1] = tested on: DNA repair reporter vectors; experiment: HCR of DNA repair reporter vectors treated with Cisplatin; format: cell-based; details: reporter vectors treated with Cisplatin before transfection; effect more pronounced in XPA and XPF deficient cells
# [2] = biological target: T1, MGMT (Homo sapiens, UniProt P16455); experiment: O^6Methylguanine HCR (mPlum:T208C reporter), MGMT dependence of signal; format: cell-based; details: TK6+MGMT cells incubated with compound before and after transfection
# T1 construct: expressed in transfected cells; host or cells: TK6 lymphoblastoid cells (MGMT-deficient) complemented with MGMT (TK6+MGMT)
# T1 sequence (P16455 1-207): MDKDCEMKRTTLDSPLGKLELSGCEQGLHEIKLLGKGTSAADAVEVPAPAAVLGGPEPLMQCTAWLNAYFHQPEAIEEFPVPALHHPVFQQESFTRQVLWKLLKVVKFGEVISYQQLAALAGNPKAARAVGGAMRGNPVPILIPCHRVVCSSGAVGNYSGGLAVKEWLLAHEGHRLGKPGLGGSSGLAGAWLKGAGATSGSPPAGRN
# Experimental: FIG. 46 is a bar graph showing that the lack of signal is MGMT dependent. BnG stands for O^6-benzylguanine, which inhibits MGMT.
# FIG. 44 is an illustration providing an assay for O^6Methylguanine HCR. An […] in fluorescence is expected when the reporter plasmid containing the mPlum:T208C mutation is treated with an agent that induces O^6MeG.
# FIG. 46 is a bar graph showing that the lack of signal is MGMT dependent. Reporter expression has been normalized to that for TK6. As expected, the highest reporter expression is observed in MGMT deficient cells.
# [3] = tested on: fluorescent reporter plasmid DNA; experiment: HCR of plasmids containing etheno lesions induced by CAA; format: cell-based, Human; details: plasmids treated with CAA; lymphoblastoid cell lines
# Description: Dose and cell line dependent inhibition of transcription in plasmids treated with CAA is shown at right.
structure (smiles),measurement,setting,value
N.N.[Cl][Pt][Cl] [Cisplatin],fluorescent reporter expression,[1],suppresses florescent reporter expression in a dose dependent manner
"Nc1nc(OCc2ccccc2)c2nc[nH]c2n1 [O^6Benzylguanine, O^6-benzylguanine]",reporter expression normalized to TK6,[2],elevated reporter expression similar to that of the MGMT deficient TK6 cells
O=CCCl [chloroacetaldehyde],fluorescent reporter expression,[3],dose-dependent decrease in fluorescent reporter expression
